Measured values published in patent US11958834B2, “Inhibitors of human immunodeficiency virus replication” (VIIV HEALTHCARE UK (No. 5) LIMITED, priority 2018, dated 2024).

How the values were obtained:
Assay type in all cases: cell-based
[1] = Compound cytotoxicity, XTT-based colorimetric assay; conditions: human; uninfected MT2 cells, day 4, XTT
Method: (§1) Compound cytotoxicity and the corresponding CC50 values were determined using the same protocol as described in the antiviral assay except that uninfected cells were used. Cytotoxicity was assessed on day 4 in uninfected MT2 cells by using a XTT (2,3-bis[2-Methoxy-4-nitro-5-sulfophenyl]-2H-tetrazolium-5-carboxyanilide inner salt)-based colorimetric assay (Sigma-Aldrich, St Louis, Mo.).

[2] = test system: recombinant NL4-3 virus (Renilla luciferase) in MT-2 cells; experiment: HIV cell culture assay (antiviral activity, luciferase readout)
Method: HIV cell culture assay—MT-2 cells, 293T cells and the proviral DNA clone of NL4-3 virus were obtained from the NIH AIDS Research and Reference Reagent Program. MT-2 cells were propagated in RPMI 1640 media supplemented with 10% heat inactivated fetal bovine serum (FBS), 100 μg/ml penicillin G and up to 100 units/mL streptomycin. The 293T cells were propagated in DMEM media supplemented with 10% heat inactivated FBS, 100 μg/mL penicillin G and 100 μg/mL streptomycin. A recombinant NL4-3 proviral clone, in which a section of the nef gene was replaced with the Renilla luciferase gene, was used to make the reference virus used in these studies. The recombinant virus was prepared through transfection of the recombinant NL4-3 proviral clone into 293T cells using Transit-293 Transfection Reagent from Mirus Bio LLC (Madison, Wis.). Supernatant was harvested after 2-3 days and the amount of virus present was titered in MT-2 cells using luciferase enzyme activity as a marker by measuring luciferase enzyme activity. Luciferase was quantitated using the EnduRen Live Cell Substrate from Promega (Madison, Wis.). Antiviral activities of compounds toward the recombinant virus were quantified by measuring luciferase activity in MT-2 cells infected for 4-5 days with the recombinant virus in the presence of serial dilutions of the compound.
The 50% effective concentration (EC50) was calculated by using the exponential form of the median effect equation where (Fa)=1/[1+(ED50/drug conc.)^m] (Johnson V A, Byington R T. Infectivity Assay. In Techniques in HIV Research. ed. Aldovini A, Walker B D. 71-76. New York: Stockton Press. 1990).

uninfected MT2 cells = experiment: Compound cytotoxicity, XTT-based colorimetric assay; conditions: day 4, XTT
Method: as §1

[3] = MT-2 cells infected for 4-5 days with recombinant NL4-3 Renilla luciferase virus
[4] = Renilla, NL43, MT-2 cells infected for 4-5 days with recombinant NL4-3 Renilla luciferase virus

SMILES | CC50 at 4 days [1] [nM] | EC50 [2, 3] [nM] | CC50 (uninfected MT2 cells) [nM] | EC50 [2, 4] [nM]
Cn1nc(NS(C)(=O)=O)c2c(Cl)ccc(-n3c([C@H](Cc4cc(F)cc(F)c4)NC(=O)Cn4nc(C(F)F)c5c4C(F)(F)[C@@H]4C[C@H]54)nccc3=O)c21 (mixture of isomers) [Example 1, N—((S)-1-(1-(4-chloro-1-methyl-3-(methylsulfonamido)-1H-indazol-7-yl)-6-oxo-1,6-dihydropyrimidin-2-yl)-2-(3,5-difluorophenyl)ethyl)-2-((3bS,4aR)-3-(difluoromethyl)-5,5-difluoro-3b,4,4a,5-tetrahydro-1H-cyclopropa[3,4]cyclopenta[1,2-c]pyrazol-1-yl)acetamide] | > 1000 | 32.7 |  | 
Cn1nc(NS(C)(=O)=O)c2c(Cl)ccc(-n3c([C@H](Cc4cc(F)cc(F)c4)NC(=O)Cn4nc(C(F)F)c5c4C(F)(F)[C@@H]4C[C@H]54)nccc3=O)c21 (mixture of isomers) [Example 2, N—((S)-1-(1-(4-chloro-1-methyl-3-(methylsulfonamido)-1H-indazol-7-yl)-6-oxo-1,6-dihydropyrimidin-2-yl)-2-(3,5-difluorophenyl)ethyl)-2-((3bS,4aR)-3-(difluoromethyl)-5,5-difluoro-3b,4,4a,5-tetrahydro-1H-cyclopropa[3,4]cyclopenta[1,2-c]pyrazol-1-yl)acetamide] |  | 0.118 | > 1000 | 
Cn1nc(NS(C)(=O)=O)c2c(Cl)ccc(-n3c([C@@H](Cc4cc(F)cc(F)c4)NC(=O)Cn4nc(C(F)F)c5c4C(F)(F)[C@@H]4C[C@H]54)nccc3=O)c21 [Example 3, N—((R)-1-((1M)-1-(4-chloro-1-methyl-3-(methylsulfonamido)-1H-indazol-7-yl)-6-oxo-1,6-dihydropyrimidin-2-yl)-2-(3,5-difluorophenyl)ethyl)-2-((3bS,4aR)-3-(difluoromethyl)-5,5-difluoro-3b,4,4a,5-tetrahydro-1H-cyclopropa[3,4]cyclopenta[1,2-c]pyrazol-1-yl)acetamide] | > 1000 |  |  | 12.7
Cn1nc(NS(C)(=O)=O)c2c(Cl)ccc(-n3c([C@H](Cc4cc(F)cc(F)c4)NC(=O)Cn4nc(C(F)F)c5c4C(F)(F)[C@@H]4C[C@H]54)nccc3=O)c21 [Example 4] |  |  | > 1000 | 0.554
Cn1nc(NS(C)(=O)=O)c2c(Cl)ccc(-n3c([C@@H](Cc4cc(F)cc(F)c4)NC(=O)Cn4nc(C(F)(F)F)c5c4C(F)(F)[C@@H]4C[C@H]54)nccc3=O)c21 [Example 5, N—((R)-1-((1M)-1-(4-chloro-1-methyl-3-(methylsulfonamido)-1H-indazol-7-yl)-6-oxo-1,6-dihydropyrimidin-2-yl)-2-(3,5-difluorophenyl)ethyl)-2-((3bS,4aR)-5,5-difluoro-3-(trifluoromethyl)-3b,4,4a,5-tetrahydro-1H-cyclopropa[3,4]cyclopenta[1,2-c]pyrazol-1-yl)acetamide] | > 1000 |  |  | 70
Cn1nc(NS(C)(=O)=O)c2c(Cl)ccc(-n3c([C@H](Cc4cc(F)cc(F)c4)NC(=O)Cn4nc(C(F)(F)F)c5c4C(F)(F)[C@@H]4C[C@H]54)nccc3=O)c21 [Example 6, N—((S)-1-((1P)-1-(4-chloro-1-methyl-3-(methylsulfonamido)-1H-indazol-7-yl)-6-oxo-1,6-dihydropyrimidin-2-yl)-2-(3,5-difluorophenyl)ethyl)-2-((3bS,4aR)-5,5-difluoro-3-(trifluoromethyl)-3b,4,4a,5-tetrahydro-1H-cyclopropa[3,4]cyclopenta[1,2-c]pyrazol-1-yl)acetamide] | > 1000 |  |  | 0.493
